Measurements from patent US20050014847A1, “Ambroxol for the treatment of chronic nociceptive pain” (Boehringer Ingelheim International GmbH, priority 2003, published 2005).

Columns and labels:
[1] = tested on: Tetrodotoxin-sensitive currents (sodium channels); assay type: cell-based, rat; settings: read-out: IC50 tetrodotoxin-sensitive currents; neuron cultures from posterior root ganglia of adult rats
[2] = molecular target: T1, human GluR1/2 receptors (Homo sapiens, UniProt P42261+P42262); assay: Patch-Clamp inhibition of glutamate-induced membrane currents in HEK 293 cells; assay type: cell-based; settings: HEK 293 cells expressing recombinant human GluR1/2, 1 mM glutamate for 1 s, holding potential −80 mV
T1 construct: expressed in transfected cells; host or cells: HEK 293
T1 sequence (P42261 19-906): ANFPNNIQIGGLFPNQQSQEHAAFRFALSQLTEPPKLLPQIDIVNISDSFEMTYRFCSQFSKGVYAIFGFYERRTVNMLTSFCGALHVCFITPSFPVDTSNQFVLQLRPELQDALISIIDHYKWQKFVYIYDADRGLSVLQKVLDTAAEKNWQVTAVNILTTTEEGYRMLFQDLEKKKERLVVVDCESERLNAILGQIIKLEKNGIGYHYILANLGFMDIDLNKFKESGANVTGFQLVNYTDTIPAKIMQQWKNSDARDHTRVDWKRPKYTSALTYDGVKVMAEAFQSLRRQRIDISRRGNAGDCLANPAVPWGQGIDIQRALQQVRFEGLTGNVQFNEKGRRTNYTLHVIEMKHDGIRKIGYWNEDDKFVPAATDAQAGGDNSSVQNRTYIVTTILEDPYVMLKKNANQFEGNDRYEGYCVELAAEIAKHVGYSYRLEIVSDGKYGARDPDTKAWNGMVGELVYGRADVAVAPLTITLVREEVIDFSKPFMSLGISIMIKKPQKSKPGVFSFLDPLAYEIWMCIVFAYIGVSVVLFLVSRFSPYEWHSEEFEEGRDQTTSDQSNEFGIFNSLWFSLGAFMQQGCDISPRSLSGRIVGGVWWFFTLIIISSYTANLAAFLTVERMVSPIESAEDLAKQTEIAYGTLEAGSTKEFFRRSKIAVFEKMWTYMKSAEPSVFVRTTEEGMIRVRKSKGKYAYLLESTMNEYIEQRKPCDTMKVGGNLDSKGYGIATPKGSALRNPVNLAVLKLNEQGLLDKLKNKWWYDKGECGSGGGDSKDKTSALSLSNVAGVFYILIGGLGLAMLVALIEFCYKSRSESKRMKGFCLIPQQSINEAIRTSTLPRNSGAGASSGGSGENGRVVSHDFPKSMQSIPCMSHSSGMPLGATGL
T1 sequence (P42262 22-883 limits assumed): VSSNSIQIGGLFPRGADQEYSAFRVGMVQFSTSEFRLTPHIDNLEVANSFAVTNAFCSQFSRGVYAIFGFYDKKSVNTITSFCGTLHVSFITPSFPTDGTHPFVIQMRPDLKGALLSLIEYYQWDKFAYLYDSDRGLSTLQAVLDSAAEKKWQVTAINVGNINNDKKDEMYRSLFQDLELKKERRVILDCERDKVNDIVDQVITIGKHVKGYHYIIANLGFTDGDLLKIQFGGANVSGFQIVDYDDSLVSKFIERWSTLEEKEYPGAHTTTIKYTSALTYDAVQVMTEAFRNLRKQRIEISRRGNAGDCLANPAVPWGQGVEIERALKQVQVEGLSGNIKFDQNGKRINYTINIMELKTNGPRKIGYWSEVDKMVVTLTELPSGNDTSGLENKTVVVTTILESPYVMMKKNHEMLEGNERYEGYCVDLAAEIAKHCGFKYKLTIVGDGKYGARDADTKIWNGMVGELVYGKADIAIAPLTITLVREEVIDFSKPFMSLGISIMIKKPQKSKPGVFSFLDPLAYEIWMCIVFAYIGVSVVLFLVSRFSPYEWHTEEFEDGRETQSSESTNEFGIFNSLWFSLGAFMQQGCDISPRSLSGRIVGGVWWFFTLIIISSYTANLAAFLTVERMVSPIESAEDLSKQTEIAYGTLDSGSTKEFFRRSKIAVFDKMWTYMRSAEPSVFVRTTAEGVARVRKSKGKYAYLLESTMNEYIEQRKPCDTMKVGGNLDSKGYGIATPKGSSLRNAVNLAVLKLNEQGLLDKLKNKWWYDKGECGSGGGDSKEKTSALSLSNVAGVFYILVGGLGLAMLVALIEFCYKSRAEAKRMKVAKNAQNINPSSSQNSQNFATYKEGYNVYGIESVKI
Description: Ionotropic glutamate receptors of the AMPA sub-type are also essential for the excitatory neurotransmission. […] HEK 293 cells which expressed functionally recombinant human GluR1/2 receptors were electrophysiologically investigated by the Patch-Clamp method ([…]). The administration of 1 mM glutamate (for 1 s at a holding potential of −80 mV) induced membrane currents which were inhibited by the joint administration of ambroxol.

Nc1c(Br)cc(Br)cc1CN[C@H]1CC[C@H](O)CC1 [ambroxol, trans-4-(2-amino-3,5-dibromobenzylamino)cyclohexanol]
IC50 [1]: > 100 µM | concentrations inhibiting glutamate-induced membrane currents [2]: 30 to 1000 µM
